# Data taken from ChEMBL document CHEMBL1141910, “Combinatorial approaches towards the discovery of new tryptase inhibitors” (Bioorg Med Chem Lett, 2005).
# Assays:
# Tryptase beta-1 [1] = molecular target: T1, Tryptase beta-1 (Homo sapiens, UniProt Q15661); assay: Percentage inhibition against tryptase at 10 uM
# Target sequence in this assay (Q15661 31-275 limits assumed): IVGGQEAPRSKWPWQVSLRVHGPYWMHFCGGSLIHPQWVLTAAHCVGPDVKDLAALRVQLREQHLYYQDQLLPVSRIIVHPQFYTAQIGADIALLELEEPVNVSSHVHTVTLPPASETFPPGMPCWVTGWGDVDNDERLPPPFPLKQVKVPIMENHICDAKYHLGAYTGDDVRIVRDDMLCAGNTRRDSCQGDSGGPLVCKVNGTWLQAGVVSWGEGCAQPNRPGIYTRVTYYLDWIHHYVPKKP
# Tryptase beta-1 [2] = molecular target: T1, Tryptase beta-1; assay: Inhibitory concentration against tryptase
# Target sequence in this assay (Q15661 whole entry): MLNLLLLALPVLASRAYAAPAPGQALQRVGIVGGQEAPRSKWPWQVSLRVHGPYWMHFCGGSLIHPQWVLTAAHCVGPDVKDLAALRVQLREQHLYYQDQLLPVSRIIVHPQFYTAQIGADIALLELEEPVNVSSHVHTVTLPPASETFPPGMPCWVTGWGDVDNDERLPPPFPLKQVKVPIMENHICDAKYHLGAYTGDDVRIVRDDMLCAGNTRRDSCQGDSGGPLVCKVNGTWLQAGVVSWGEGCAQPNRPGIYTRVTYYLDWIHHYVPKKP
SMILES,inhibition (Tryptase beta-1 [1]),IC50 (Tryptase beta-1 [2])
N=C(N)NCCCCC(=O)NCCCC[C@@H]1NC(=O)[C@H](CCCCNC(=O)[C@H](CCCNC(=N)N)NC(=O)c2ccccc2)NC1=O,47.5%,9.3 µM
CN(CCC(=O)NCCCC[C@@H]1NC(=O)[C@H](CCCCNC(=O)CCN=C(N)N)NC1=O)C(=N)N,51.7%,–
N=C(N)NCCCC(NC(=O)OCc1ccccc1)C(=O)O (configuration not stated),1.97%,–
CN(CCC(=O)NCCCC[C@@H]1NC(=O)[C@H](CCCCNC(=O)CCNC(=N)N)NC1=O)C(=N)N,–,5.9 µM
CN(CCC(=O)NCCCC[C@@H]1NC(=O)[C@H](CCCCNC(=O)CCCN=C(N)N)NC1=O)C(=N)N,36.7%,–
N=C(N)NCCCCC(=O)NCCCC[C@@H]1NC(=O)[C@H](CCCCNC(=O)[C@H](CCCNC(=N)N)NC(=O)OCc2ccccc2)NC1=O,68%,5.7 µM
N=C(N)NCCCC(=O)NCCCC[C@@H]1NC(=O)[C@H](CCCCNC(=O)CCCNC(=N)N)NC1=O,59.3%,4.7 µM
N=C(N)NCCC[C@H](N)C(=O)O,3.71%,–
N=C(N)NCCC[C@H](NC(=O)c1ccccc1)C(=O)NCCCC[C@@H]1NC(=O)[C@H](CC(=O)Nc2cccc(C(=N)N)c2)NC1=O,70.6%,12.4 µM
N=C(N)NCCC[C@H](NC(=O)OCc1ccccc1)C(=O)NCCCC[C@@H]1NC(=O)[C@H](CCCCNC(=O)[C@H](CCCN=C(N)N)NC(=O)OCc2ccccc2)NC1=O,48.5%,4.1 µM
CN(CCC(=O)O)C(=N)N,2.55%,–
N=C(N)Nc1ccc(C(=O)NCCCC[C@@H]2NC(=O)[C@H](CCCCNC(=O)CN3CCN=C3N)NC2=O)cc1,61.1%,–
N=C(N)NCC(=O)NCCCC[C@@H]1NC(=O)[C@H](CC(=O)Nc2cccc(C(=N)N)c2)NC1=O,58.6%,19.9 µM
N=C(N)NCCCC(=O)NCCCC[C@@H]1NC(=O)[C@H](CC(=O)Nc2cccc(C(=N)N)c2)NC1=O,54.4%,21.3 µM
N=C(N)NCCCC(NC(=O)c1ccccc1)C(=O)O (configuration not stated),7.53%,–
N=C(N)Nc1ccc(C(=O)NCCCC[C@@H]2NC(=O)[C@H](CC(=O)Nc3cccc(C(=N)N)c3)NC2=O)cc1,47.3%,–
N=C(N)NCCCC(NC(=O)OCC1c2ccccc2-c2ccccc21)C(=O)NCCCC[C@@H]1NC(=O)[C@H](CC(=O)/N=C(\N)NNCCCc2ccccc2)NC1=O (some centres not stated),49.3%,–
N=C(N)NCCCC(=O)NCCCC[C@@H]1NC(=O)[C@H](CCCCNC(=O)[C@H](CCCNC(=N)N)NC(=O)OCc2ccccc2)NC1=O,83%,2.2 µM
N=C(N)NCCCC(NC(=O)OCC1c2ccccc2-c2ccccc21)C(=O)NCCCC[C@@H]1NC(=O)[C@H](CC(=O)Nc2ccc(C(=N)N)cc2)NC1=O (some centres not stated),64.5%,–
N=C(N)NCCC[C@H](NC(=O)OCc1ccccc1)C(=O)NCCCC[C@@H]1NC(=O)[C@H](CC(=O)Nc2ccc(C(=N)N)cc2)NC1=O,41.6%,–

SMILES,inhibition (Tryptase beta-1 [1]),IC50 (Tryptase beta-1 [2])
N=C(N)NCCC[C@H](NC(=O)OCc1ccccc1)C(=O)NCCCC[C@@H]1NC(=O)[C@H](CC(=O)Nc2cccc(C(=N)N)c2)NC1=O,59%,–
N=C(N)NCCCC(=O)O,8.92%,–
N=C(N)NCCCC(=O)NCCCC[C@@H]1NC(=O)[C@H](CCCCNC(=O)[C@H](CCCNC(=N)N)NC(=O)c2ccccc2)NC1=O,80.5%,2.4 µM
N=C(N)NCCCCC(=O)NCCCC[C@@H]1NC(=O)[C@H](CCCCNC(=O)CCCNC(=N)N)NC1=O,44.4%,–
N=C(N)NCCC[C@H](NC(=O)OCc1ccccc1)C(=O)NCCCC[C@@H]1NC(=O)[C@H](CCCCNC(=O)[C@H](CCCN=C(N)N)NC(=O)c2ccccc2)NC1=O,43.3%,–
CN(CCC(=O)NCCCC[C@@H]1NC(=O)[C@H](CC(=O)Nc2cccc(C(=N)N)c2)NC1=O)C(=N)N,62.6%,12.8 µM
N=C(N)Nc1ccc(C(=O)NCCCC[C@@H]2NC(=O)[C@H](CC(=O)Nc3ccc(C(=N)N)cc3)NC2=O)cc1,73.9%,–
N=C(N)NNC(=O)C[C@@H]1NC(=O)[C@H](CCCCNC(=O)c2ccc(NC(=N)N)cc2)NC1=O,42.5%,–
N=C(N)NCCC(=O)O,-6%,–
N=C(N)Nc1ccc(C(=O)O)cc1,38.8%,–
N=C(N)NCCCC(NC(=O)OCC1c2ccccc2-c2ccccc21)C(=O)NCCCC[C@@H]1NC(=O)[C@H](CC(=O)Nc2cccc(C(=N)N)c2)NC1=O (some centres not stated),62.6%,9.09 µM
N=C(N)NCCC[C@H](NC(=O)c1ccccc1)C(=O)NCCCC[C@@H]1NC(=O)[C@H](CC(=O)Nc2ccc(C(=N)N)cc2)NC1=O,45%,–
N=C(N)c1cccc(NC(=O)C[C@@H]2NC(=O)[C@H](CCCCNC(=O)CN3CCN=C3N)NC2=O)c1,47.7%,–
NC1=NCCN1CC(=O)O,3.24%,–
N=C(N)NCCC[C@H](NC(=O)c1ccccc1)C(=O)NCCCC[C@@H]1NC(=O)[C@H](CCCCNC(=O)CCNC(=N)N)NC1=O,31.2%,–
N=C(N)c1ccc(C(=O)O)cc1,2.9%,–
NC(N)=Nc1ccc(C(=O)NCCCC[C@@H]2NC(=O)[C@H](CCCCNC(=O)CN3CCN=C3N)NC2=O)cc1,–,4.4 µM
N=C(N)NCCC(=O)NCCCC[C@@H]1NC(=O)[C@H](CC(=O)Nc2cccc(C(=N)N)c2)NC1=O,76.5%,23.6 µM
N=C(N)NCC(=O)O,-3%,–
N=C(N)NCCCCC(=O)O,0.23%,–
